A short description of data set [1]: Metabolic stability in mouse liver microsomes assessed as half life incubated upto 60 mins in presence of NADPH by LC-MS/MS analysis. The data set is classed as ADME, Microsome. The following applies: 1 h. (Microsomes from liver hold many membrane-bound enzymes, among them those of drug oxidation.)
Data set [2] in a line: AUC (0 to infinity) in ICR mouse at 10 mg/kg, po measured upto 24 hrs by LC-MS/MS analysis. The data set is classed as ADME, organism-based. The arrangement: time < 24 hrs, dose 10 mg/kg, route po. The note with it: in vivo.
Data set [3] can be described thus: Cmax in ICR mouse at 2 mg/kg, iv measured upto 24 hrs by LC-MS/MS analysis. The data set is classed as ADME, organism-based. More on the design: time < 24 hrs, dose 2 mg/kg, route iv. The note with it: in vivo.
Data set [4] is described as follows: AUC (0 to infinity) in ICR mouse at 2 mg/kg, iv measured upto 24 hrs by LC-MS/MS analysis. The data set is classed as ADME, organism-based. More on the design: time < 24 hrs, dose 2 mg/kg, route iv. The note with it: in vivo.
Data set [5] can be described thus: Tmax in ICR mouse at 2 mg/kg, iv measured upto 24 hrs by LC-MS/MS analysis. The data set is classed as ADME, organism-based. The following applies: in vivo.
Data set [6] is described as follows: Cmax in ICR mouse at 10 mg/kg, po measured upto 24 hrs by LC-MS/MS analysis. The arrangement: dose 10 mg/kg, time < 24 hrs, route po. The note with it: in vivo. The data set is classed as ADME, organism-based.
The nature of data set [7]: Tmax in ICR mouse at 10 mg/kg, po measured upto 24 hrs by LC-MS/MS analysis. The data set is classed as ADME, organism-based. The note with it: in vivo.
Data set [8] can be described thus: AUC (0 to t) in ICR mouse at 2 mg/kg, iv measured upto 24 hrs by LC-MS/MS analysis. The data set is classed as ADME, organism-based. The note with it: in vivo. The arrangement: time < 24 hrs, dose 2 mg/kg, route iv.
Data set [9] in a line: Half life in ICR mouse at 10 mg/kg, po measured upto 24 hrs by LC-MS/MS analysis. The following applies: in vivo. The data set is classed as ADME, organism-based.
The nature of data set [10]: Half life in ICR mouse at 2 mg/kg, iv measured upto 24 hrs by LC-MS/MS analysis. The data set is classed as ADME, organism-based. The note with it: in vivo.
Data set [11] is described as follows: Observed clearance in ICR mouse at 2 mg/kg, iv measured upto 24 hrs by LC-MS/MS analysis. The data set is classed as ADME, organism-based. The following applies: in vivo.
Data set [12] can be described thus: MRT (0 to t) in ICR mouse at 10 mg/kg, po measured upto 24 hrs by LC-MS/MS analysis. The data set is classed as ADME, organism-based. The following applies: in vivo.
Data set [13] can be described thus: Oral bioavailability in ICR mouse at 10 mg/kg measured upto 24 hrs by LC-MS/MS analysis. The following applies: in vivo. The data set is classed as ADME, organism-based.
A short description of data set [14]: MRT (0 to t) in ICR mouse at 2 mg/kg, iv measured upto 24 hrs by LC-MS/MS analysis. The data set is classed as ADME, organism-based. The note with it: in vivo.
Data set [15] in a line: AUC (0 to t) in ICR mouse at 10 mg/kg, po measured upto 24 hrs by LC-MS/MS analysis. The data set is classed as ADME, organism-based. More on the design: dose 10 mg/kg, time < 24 hrs, route po. The note with it: in vivo.

Usually AUC(0-inf) stands for the area under the concentration-time curve extrapolated to infinity. Low readings indicate low exposure, high ones high exposure. By Cmax is commonly meant the highest concentration seen after dosing. As usually defined, the Tmax is the time from dosing to the highest level. One may read the AUC(0-t) as exposure summed from dosing to a finite time, without extrapolation to infinity. Read a high AUC(0-t) as more exposure. For orientation: half-life means the time in which the quantity being followed falls by half. A low value points to fast loss. The term clearance denotes the rate of elimination divided by the concentration. High values mean a high capacity for elimination, low ones a low capacity for elimination. By MRT last is commonly meant the average time that molecules of a dose stay in the body. Broadly, the bioavailability is dose-corrected exposure relative to a reference, in per cent. The low end stands for poor availability, the high end for good availability. Take `C[C@@H](Oc1cc(NC(=O)c2cn(CCN3CCOCC3)c3cc(Br)c(C=O)nc23)ncc1C#N)c1c(Cl)cncc1Cl`: in data set [1], the t1/2 is 696 min. Further, the AUC(0-inf) turned out to be 38.6 ng·h/mL in data set [2] and 704 ng·h/mL in data set [4]. Also, the Cmax in [3] is 1640 ng/mL; in data set [6], 13.4 ng/mL. Also, the figures for the Tmax in data set [5] and in [7] were 4.98 min and 23.4 min, respectively. Moreover, the AUC(0-t) at 24 h in data set [8] amounted to 702 ng·h/mL; in data set [15], 29.5 ng·h/mL. The half-life in data set [9] is 196 min; in [10] it was 45.6 min. In addition, the clearance in data set [11] is 49.7 mL/min/kg. Also, the figures for the MRT last at 24 h in data set [12] and in data set [14] were 104 min and 29.4 min, respectively. Further, in data set [13], the bioavailability amounted to 1.1%.

The values are drawn from ChEMBL document CHEMBL5214988, “Design, Synthesis, and Biological Evaluation of 5-Formyl-pyrrolo[3,2-b]pyridine-3-carboxamides as New Selective, Potent, and Reversible-Covalent FGFR4 Inhibitors” (J Med Chem, 2022).
